According to ChEMBL document CHEMBL4507260 (2021):

How the values were obtained:
Settings in all cases: Compound concentration 1000.0 nM
[1] = target: Serine/threonine-protein kinase Nek3 (Homo sapiens) (UniProt P51956)
[2] = target: Ribosomal protein S6 kinase alpha-2 (Homo sapiens) (UniProt Q15349)
[3] = target: Phosphatidylinositol 5-phosphate 4-kinase type-2 beta (Homo sapiens) (UniProt P78356)
[4] = target: Non-receptor tyrosine-protein kinase TYK2 (Homo sapiens) (UniProt P29597)
[5] = target: Serine/threonine-protein kinase tousled-like 1 (Homo sapiens) (UniProt Q9UKI8)
[6] = target: Beta-adrenergic receptor kinase 1 (Homo sapiens) (UniProt P25098)
[7] = target: cAMP-dependent protein kinase catalytic subunit beta (Homo sapiens) (UniProt P22694)
[8] = target: Focal adhesion kinase 1 (Homo sapiens) (UniProt Q05397)
[9] = test system: Tyrosine-protein kinase ABL1 (Homo sapiens), P00519 [E255K]
[10] = target: RAF proto-oncogene serine/threonine-protein kinase (Homo sapiens) (UniProt P04049)
[11] = target: Ephrin type-A receptor 8 (Homo sapiens) (UniProt P29322)
[12] = target: Serine/threonine-protein kinase TNNI3K (Homo sapiens) (UniProt Q59H18)
[13] = target: Dual serine/threonine and tyrosine protein kinase (Homo sapiens) (UniProt Q6XUX3)
[14] = target: Serine/threonine-protein kinase pim-3 (Homo sapiens) (UniProt Q86V86)
[15] = target: Non-receptor tyrosine-protein kinase TYK2 (Homo sapiens) (UniProt P29597); remark: listed apart in the source
[16] = target: Serine/threonine-protein kinase Chk2 (Homo sapiens) (UniProt O96017)
[17] = target: Protein kinase C eta type (Homo sapiens) (UniProt P24723)
[18] = target: Serine/threonine-protein kinase 33 (Homo sapiens) (UniProt Q9BYT3)
[19] = target: Mitogen-activated protein kinase 8 (Homo sapiens) (UniProt P45983)
[20] = test system: Hepatocyte growth factor receptor (Homo sapiens), P08581 [M1250T]
[21] = target: Misshapen-like kinase 1 (Homo sapiens) (UniProt Q8N4C8)
[22] = target: Activin receptor type-1 (Homo sapiens) (UniProt Q04771)
[23] = target: Phosphatidylinositol 4,5-bisphosphate 3-kinase catalytic subunit gamma isoform (Homo sapiens) (UniProt P48736)
[24] = target: Phosphatidylinositol 3-kinase C2 domain-containing subunit gamma (Homo sapiens) (UniProt O75747)
[25] = test system: Proto-oncogene tyrosine-protein kinase receptor Ret (Homo sapiens), P07949 [V804M]
[26] = target: Serine/threonine-protein kinase 36 (Homo sapiens) (UniProt Q9NRP7)
[27] = target: Inhibitor of nuclear factor kappa-B kinase subunit epsilon (Homo sapiens) (UniProt Q14164)
[28] = target: Tyrosine-protein kinase receptor Tie-1 (Homo sapiens) (UniProt P35590)
[29] = target: Serine/threonine-protein kinase 32A (Homo sapiens) (UniProt Q8WU08)
[30] = target: Insulin receptor (Homo sapiens) (UniProt P06213)
[31] = target: Insulin receptor-related protein (Homo sapiens) (UniProt P14616)
[32] = target: Peripheral plasma membrane protein CASK (Homo sapiens) (UniProt O14936)
[33] = target: Vascular endothelial growth factor receptor 1 (Homo sapiens) (UniProt P17948)
[34] = target: Ribosomal protein S6 kinase alpha-1 (Homo sapiens) (UniProt Q15418)
[35] = target: Tyrosine-protein kinase JAK3 (Homo sapiens) (UniProt P52333)
[36] = target: Cyclin-dependent kinase 14 (Homo sapiens) (UniProt O94921)
[37] = target: Serine/threonine-protein kinase PRP4 homolog (Homo sapiens) (UniProt Q13523)
[38] = target: Serine/threonine-protein kinase WNK4 (Homo sapiens) (UniProt Q96J92)
[39] = target: MAP/microtubule affinity-regulating kinase 4 (Homo sapiens) (UniProt Q96L34)
[40] = target: Tyrosine-protein kinase JAK1 (Homo sapiens) (UniProt P23458)
[41] = target: Serine/threonine-protein kinase PAK 2 (Homo sapiens) (UniProt Q13177)
[42] = target: Calcium/calmodulin-dependent protein kinase type 1D (Homo sapiens) (UniProt Q8IU85)
[43] = target: Tyrosine-protein kinase ABL2 (Homo sapiens) (UniProt P42684)
[44] = target: STE20-like serine/threonine-protein kinase (Homo sapiens) (UniProt Q9H2G2)
[45] = target: BMP-2-inducible protein kinase (Homo sapiens) (UniProt Q9NSY1)

Measured: residual activity

Chain of Non-receptor tyrosine-protein kinase TYK2 (Homo sapiens) (P29597 whole entry): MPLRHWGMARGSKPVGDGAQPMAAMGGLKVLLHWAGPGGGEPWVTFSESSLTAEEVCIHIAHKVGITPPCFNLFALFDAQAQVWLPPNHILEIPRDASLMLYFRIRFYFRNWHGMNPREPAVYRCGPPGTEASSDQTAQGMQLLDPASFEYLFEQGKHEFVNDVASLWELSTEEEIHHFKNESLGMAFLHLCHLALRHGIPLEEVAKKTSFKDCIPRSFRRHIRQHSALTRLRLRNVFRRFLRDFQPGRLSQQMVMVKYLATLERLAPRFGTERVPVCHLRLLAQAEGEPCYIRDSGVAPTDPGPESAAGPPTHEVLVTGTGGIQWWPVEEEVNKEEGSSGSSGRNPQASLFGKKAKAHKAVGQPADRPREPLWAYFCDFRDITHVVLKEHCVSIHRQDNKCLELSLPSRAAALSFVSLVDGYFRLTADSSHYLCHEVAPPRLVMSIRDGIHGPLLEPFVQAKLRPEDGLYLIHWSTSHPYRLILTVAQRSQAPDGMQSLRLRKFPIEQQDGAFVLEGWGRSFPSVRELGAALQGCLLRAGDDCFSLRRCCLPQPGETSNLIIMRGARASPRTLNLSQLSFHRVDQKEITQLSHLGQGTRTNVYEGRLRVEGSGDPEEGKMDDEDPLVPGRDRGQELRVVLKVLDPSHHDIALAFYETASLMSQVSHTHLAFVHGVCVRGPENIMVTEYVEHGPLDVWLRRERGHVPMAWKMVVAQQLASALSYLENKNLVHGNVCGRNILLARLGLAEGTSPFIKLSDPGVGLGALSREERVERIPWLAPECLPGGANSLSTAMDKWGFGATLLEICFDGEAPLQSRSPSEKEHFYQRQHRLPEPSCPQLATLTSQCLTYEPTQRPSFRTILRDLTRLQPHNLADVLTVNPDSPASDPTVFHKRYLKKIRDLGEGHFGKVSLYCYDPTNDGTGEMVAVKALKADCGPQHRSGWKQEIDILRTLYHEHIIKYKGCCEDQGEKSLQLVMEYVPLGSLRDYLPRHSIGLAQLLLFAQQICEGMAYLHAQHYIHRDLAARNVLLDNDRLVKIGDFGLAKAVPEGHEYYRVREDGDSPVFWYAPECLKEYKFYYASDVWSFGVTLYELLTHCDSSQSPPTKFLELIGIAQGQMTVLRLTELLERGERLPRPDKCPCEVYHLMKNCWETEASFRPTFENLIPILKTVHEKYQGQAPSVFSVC
Chain of RAF proto-oncogene serine/threonine-protein kinase (Homo sapiens) (P04049 whole entry): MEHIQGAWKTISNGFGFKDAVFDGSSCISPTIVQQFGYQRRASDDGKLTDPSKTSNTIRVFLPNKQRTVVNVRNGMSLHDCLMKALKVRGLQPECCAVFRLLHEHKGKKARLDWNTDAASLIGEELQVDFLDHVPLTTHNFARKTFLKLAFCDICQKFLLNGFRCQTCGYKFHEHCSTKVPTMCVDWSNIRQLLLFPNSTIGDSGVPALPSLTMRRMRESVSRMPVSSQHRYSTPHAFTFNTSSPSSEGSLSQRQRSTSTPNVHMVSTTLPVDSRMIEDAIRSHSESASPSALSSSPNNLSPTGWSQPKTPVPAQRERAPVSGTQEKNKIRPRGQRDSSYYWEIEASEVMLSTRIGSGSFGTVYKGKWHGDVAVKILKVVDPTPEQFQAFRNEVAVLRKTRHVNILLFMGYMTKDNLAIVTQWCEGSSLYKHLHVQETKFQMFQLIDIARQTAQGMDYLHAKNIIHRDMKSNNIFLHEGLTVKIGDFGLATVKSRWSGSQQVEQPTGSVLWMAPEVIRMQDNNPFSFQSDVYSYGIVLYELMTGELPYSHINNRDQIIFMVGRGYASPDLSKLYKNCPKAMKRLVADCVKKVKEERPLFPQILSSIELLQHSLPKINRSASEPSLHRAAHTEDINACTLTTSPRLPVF
Chain of Tyrosine-protein kinase JAK3 (Homo sapiens) (P52333 whole entry): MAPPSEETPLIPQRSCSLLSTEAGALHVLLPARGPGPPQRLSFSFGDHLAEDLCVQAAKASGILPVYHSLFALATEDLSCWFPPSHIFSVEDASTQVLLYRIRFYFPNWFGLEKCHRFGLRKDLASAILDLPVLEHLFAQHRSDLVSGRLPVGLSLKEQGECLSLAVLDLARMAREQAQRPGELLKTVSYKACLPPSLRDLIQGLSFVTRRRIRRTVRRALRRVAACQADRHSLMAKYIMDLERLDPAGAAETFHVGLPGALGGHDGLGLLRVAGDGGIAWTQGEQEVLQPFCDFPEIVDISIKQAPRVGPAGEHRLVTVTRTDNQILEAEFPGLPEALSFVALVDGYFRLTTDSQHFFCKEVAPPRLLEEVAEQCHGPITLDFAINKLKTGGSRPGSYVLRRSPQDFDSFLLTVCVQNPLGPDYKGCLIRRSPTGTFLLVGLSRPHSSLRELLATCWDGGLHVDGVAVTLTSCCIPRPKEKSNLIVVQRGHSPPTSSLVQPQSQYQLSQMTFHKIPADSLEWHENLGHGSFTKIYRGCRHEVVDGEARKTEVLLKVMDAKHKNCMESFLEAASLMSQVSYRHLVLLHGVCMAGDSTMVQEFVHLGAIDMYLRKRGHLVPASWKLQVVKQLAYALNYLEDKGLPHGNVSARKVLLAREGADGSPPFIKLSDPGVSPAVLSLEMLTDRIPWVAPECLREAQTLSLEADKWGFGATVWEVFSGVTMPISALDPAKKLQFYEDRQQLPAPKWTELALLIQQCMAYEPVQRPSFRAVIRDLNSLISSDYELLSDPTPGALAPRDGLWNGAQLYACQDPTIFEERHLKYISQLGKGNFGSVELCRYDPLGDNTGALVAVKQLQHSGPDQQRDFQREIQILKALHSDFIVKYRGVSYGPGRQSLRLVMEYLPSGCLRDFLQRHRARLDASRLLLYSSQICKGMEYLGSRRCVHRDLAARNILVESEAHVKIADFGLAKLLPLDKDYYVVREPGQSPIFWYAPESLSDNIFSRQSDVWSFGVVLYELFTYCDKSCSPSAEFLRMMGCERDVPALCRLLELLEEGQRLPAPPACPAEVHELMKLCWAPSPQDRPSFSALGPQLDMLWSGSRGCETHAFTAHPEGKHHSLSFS
Chain of Serine/threonine-protein kinase 32A (Homo sapiens) (Q8WU08 whole entry): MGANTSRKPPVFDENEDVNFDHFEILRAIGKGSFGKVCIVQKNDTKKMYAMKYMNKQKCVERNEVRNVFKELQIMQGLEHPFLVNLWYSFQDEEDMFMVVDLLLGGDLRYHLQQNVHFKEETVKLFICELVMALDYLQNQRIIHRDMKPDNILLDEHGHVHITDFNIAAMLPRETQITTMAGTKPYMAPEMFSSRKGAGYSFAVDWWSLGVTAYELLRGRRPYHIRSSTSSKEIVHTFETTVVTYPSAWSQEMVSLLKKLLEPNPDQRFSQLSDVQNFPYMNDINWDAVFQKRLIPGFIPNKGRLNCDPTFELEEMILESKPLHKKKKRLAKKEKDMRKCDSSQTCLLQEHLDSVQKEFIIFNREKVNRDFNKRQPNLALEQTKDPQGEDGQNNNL
Chain of Serine/threonine-protein kinase 33 (Homo sapiens) (Q9BYT3 whole entry, looked up): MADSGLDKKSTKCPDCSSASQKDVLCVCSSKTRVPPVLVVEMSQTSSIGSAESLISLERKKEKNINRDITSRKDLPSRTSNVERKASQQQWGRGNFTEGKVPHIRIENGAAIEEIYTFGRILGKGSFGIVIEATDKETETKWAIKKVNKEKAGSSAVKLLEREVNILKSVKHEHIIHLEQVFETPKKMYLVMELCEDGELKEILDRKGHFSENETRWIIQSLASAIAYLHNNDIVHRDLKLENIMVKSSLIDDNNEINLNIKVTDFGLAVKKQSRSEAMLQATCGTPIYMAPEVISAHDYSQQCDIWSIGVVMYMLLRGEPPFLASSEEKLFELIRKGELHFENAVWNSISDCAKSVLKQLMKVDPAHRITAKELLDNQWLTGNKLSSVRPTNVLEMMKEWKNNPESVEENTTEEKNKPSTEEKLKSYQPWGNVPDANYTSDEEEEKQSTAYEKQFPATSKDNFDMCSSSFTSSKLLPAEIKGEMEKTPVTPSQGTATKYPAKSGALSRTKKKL
Chain of Protein kinase C eta type (Homo sapiens) (P24723 whole entry): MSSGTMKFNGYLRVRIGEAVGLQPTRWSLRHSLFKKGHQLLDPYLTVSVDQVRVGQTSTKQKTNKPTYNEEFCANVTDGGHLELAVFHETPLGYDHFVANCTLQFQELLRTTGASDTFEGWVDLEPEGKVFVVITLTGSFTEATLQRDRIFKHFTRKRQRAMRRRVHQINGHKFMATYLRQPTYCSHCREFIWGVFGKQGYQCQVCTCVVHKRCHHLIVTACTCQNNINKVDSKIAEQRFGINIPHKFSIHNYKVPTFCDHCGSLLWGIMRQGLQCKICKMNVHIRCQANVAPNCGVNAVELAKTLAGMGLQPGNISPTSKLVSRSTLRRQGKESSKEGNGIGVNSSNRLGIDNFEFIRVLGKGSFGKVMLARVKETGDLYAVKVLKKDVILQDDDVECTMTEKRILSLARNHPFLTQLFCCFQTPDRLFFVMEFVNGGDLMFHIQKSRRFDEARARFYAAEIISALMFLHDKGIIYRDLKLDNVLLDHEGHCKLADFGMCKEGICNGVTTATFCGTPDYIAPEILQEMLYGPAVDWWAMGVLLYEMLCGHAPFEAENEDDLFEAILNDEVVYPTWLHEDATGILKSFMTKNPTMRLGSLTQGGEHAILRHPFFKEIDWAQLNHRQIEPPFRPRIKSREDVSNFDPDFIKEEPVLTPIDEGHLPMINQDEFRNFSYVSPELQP
Chain of Serine/threonine-protein kinase PAK 2 (Homo sapiens) (Q13177 whole entry): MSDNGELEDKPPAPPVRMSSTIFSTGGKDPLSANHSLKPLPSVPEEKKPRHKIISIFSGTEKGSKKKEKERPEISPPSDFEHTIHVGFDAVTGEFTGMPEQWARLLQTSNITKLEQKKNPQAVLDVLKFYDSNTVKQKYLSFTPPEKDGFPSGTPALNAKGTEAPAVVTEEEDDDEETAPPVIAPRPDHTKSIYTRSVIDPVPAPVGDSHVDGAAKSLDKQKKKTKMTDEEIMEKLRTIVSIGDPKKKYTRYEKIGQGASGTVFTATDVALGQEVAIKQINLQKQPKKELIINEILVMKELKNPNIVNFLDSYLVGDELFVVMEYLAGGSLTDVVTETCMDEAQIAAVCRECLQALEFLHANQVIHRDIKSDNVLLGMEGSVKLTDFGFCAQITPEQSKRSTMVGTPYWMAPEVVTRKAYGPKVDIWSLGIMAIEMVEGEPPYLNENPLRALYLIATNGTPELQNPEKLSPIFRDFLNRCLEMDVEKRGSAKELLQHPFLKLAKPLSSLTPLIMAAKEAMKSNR

c1ccc(N2CCN(Cc3nc4ccccc4[nH]3)CC2)nc1 [ABT-724]
inactive: [1] 100% | [2] 100% | [3] 100% | [4] 100% | [5] 95% | [6] 90% | [7] 93% | [8] 86% | [9] 100% | [10] 100% | [11] 100% | [12] 100% | [13] 100% | [14] 100% | [15] 100% | [16] 100% | [17] 89% | [18] 97% | [19] 100% | [20] 100% | [21] 100% | [22] 100% | [23] 100% | [24] 100% | [25] 100% | [26] 84% | [27] 100% | [28] 96% | [29] 100% | [30] 100% | [31] 97% | [32] 97% | [33] 100% | [34] 100% | [35] 100% | [36] 100% | [37] 57% | [38] 100% | [39] 100% | [40] 76% | [41] 100% | [42] 96% | [43] 100% | [44] 93% | [45] 100%

CSc1cccnc1N1CCN(Cc2nc3ccccc3[nH]2)CC1 [A-769]
inactive: [1] 88% | [2] 100% | [3] 100% | [4] 84% | [5] 100% | [6] 93% | [7] 100% | [8] 100% | [9] 67% | [10] 91% | [11] 95% | [12] 100% | [13] 76% | [14] 94% | [15] 100% | [16] 96% | [17] 100% | [18] 91% | [19] 77% | [20] 98% | [21] 89% | [22] 100% | [23] 64% | [24] 95% | [25] 100% | [26] 97% | [27] 81% | [28] 100% | [29] 100% | [30] 85% | [31] 94% | [32] 100% | [33] 100% | [34] 100% | [35] 100% | [36] 100% | [37] 100% | [38] 91% | [39] 100% | [40] 80% | [41] 100% | [42] 100% | [43] 98% | [44] 100% | [45] 100%
